Test results: ChEMBL document CHEMBL1201862, “PubChem BioAssay data set” (2004)
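The compound was tested at five concentrations on cells cultured in 96-well plates, with a 48-hour exposure period. Here, GI50 denotes the concentration required for 50% inhibition of growth.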 Active and inactive are the calls of the source. Rule as the data show it: active = GI50 up to about 1.1 µM and inactive = higher.

Assays:
Experiment in all cases: NCI anticancer screen, dose series, 48 h
SF-295 = system: SF-295
A549 = system: A549
KM12 = system: KM12
HL-60 = system: HL-60
DLD-1 = system: DLD-1
DMS-273 = system: DMS-273
SNB-78 = system: SNB-78
HOP-92 = system: HOP-92
CCRF-CEM = system: CCRF-CEM
TK-10 = system: TK-10
NCI-H522 = system: NCI-H522
UACC-62 = system: UACC-62
HOP-62 = system: HOP-62
SK-OV-3 = system: SK-OV-3
EKVX = system: EKVX
SF-539 = system: SF-539
K562 = system: K562
HCT-116 = system: HCT-116
ACHN = system: ACHN
HCC 2998 = system: HCC 2998
HCT-15 = system: HCT-15
SNB-75 = system: SNB-75
U-251 = system: U-251
SF-268 = system: SF-268
SW-620 = system: SW-620
UO-31 = system: UO-31
OVCAR-5 = system: OVCAR-5
RXF 631 = system: RXF 631
LXFL 529 = system: LXFL 529
RPMI-8226 = system: RPMI-8226
NCI-H460 = system: NCI-H460
MOLT-4 = system: MOLT-4
CAKI-1 = system: CAKI-1
M14 = system: M14
OVCAR-3 = system: OVCAR-3
UACC-257 = system: UACC-257
KM-20L2 = system: KM-20L2
OVCAR-4 = system: OVCAR-4
SNB-19 = system: SNB-19
SK-MEL-5 = system: SK-MEL-5
SR = system: SR
OVCAR-8 = system: OVCAR-8
COLO 205 = system: COLO 205
HOP-18 = system: HOP-18
M19-MEL = system: M19-MEL
Malme-3M = system: Malme-3M
XF498 = system: XF498
SN12C = system: SN12C
LOX IMVI = system: LOX IMVI
786-0 = system: 786-0
IGROV-1 = system: IGROV-1
NCI-H23 = system: NCI-H23
DMS-114 = system: DMS-114
HT-29 = system: HT-29
NCI-H226 = system: NCI-H226
SK-MEL-2 = system: SK-MEL-2
A498 = system: A498
RXF 393 = system: RXF 393
SK-MEL-28 = system: SK-MEL-28

**Q.** What does the source list for `O=c1/c(=C/c2ccccc2[N+](=O)[O-])sc2nc3ccccc3n12`?
**A.** GI50 (SF-295): 18.8 µM (inactive); GI50 (A549): 30.8 µM (inactive); GI50 (KM12): 34.7 µM (inactive); GI50 (HL-60): 41.1 µM (inactive); GI50 (DLD-1): 27.7 µM (inactive); GI50 (DMS-273): 20 µM (inactive); GI50 (SNB-78): 23.1 µM (inactive); GI50 (HOP-92): 32.1 µM (inactive); GI50 (CCRF-CEM): 13 µM (inactive); GI50 (TK-10): > 46.5 µM (inactive); GI50 (NCI-H522): 35.4 µM (inactive); GI50 (UACC-62): 64.7 µM (inactive); GI50 (HOP-62): 42.4 µM (inactive); GI50 (SK-OV-3): > 31.6 µM (inactive); GI50 (EKVX): > 100 µM (inactive); GI50 (SF-539): 19.5 µM (inactive); GI50 (K562): 40.8 µM (inactive); GI50 (HCT-116): 21.7 µM (inactive); GI50 (ACHN): > 46.5 µM (inactive); GI50 (HCC 2998): 30.8 µM (inactive); GI50 (HCT-15): 17 µM; GI50 (SNB-75): 24.5 µM (inactive); GI50 (U-251): 19.9 µM (inactive); GI50 (SF-268): 29.9 µM (inactive); GI50 (SW-620): 24.1 µM (inactive); GI50 (UO-31): > 46.5 µM (inactive); GI50 (OVCAR-5): > 46.5 µM (inactive); GI50 (RXF 631): 17.5 µM (inactive); GI50 (LXFL 529): 33.4 µM (inactive); GI50 (RPMI-8226): 12.6 µM (inactive); GI50 (NCI-H460): 37.8 µM (inactive); GI50 (MOLT-4): > 46.1 µM (inactive); GI50 (CAKI-1): > 73.1 µM (inactive); GI50 (M14): 39.7 µM (inactive); GI50 (OVCAR-3): > 31.6 µM (inactive); GI50 (UACC-257): 34.8 µM (inactive); GI50 (KM-20L2): > 100 µM (inactive); GI50 (OVCAR-4): > 46.5 µM (inactive); GI50 (SNB-19): 21.9 µM (inactive); GI50 (SK-MEL-5): 41.6 µM (inactive); GI50 (SR): 12.2 µM (inactive); GI50 (OVCAR-8): 38.9 µM (inactive); GI50 (COLO 205): 26.6 µM (inactive); GI50 (HOP-18): 44.6 µM (inactive); GI50 (M19-MEL): 28.6 µM (inactive); GI50 (Malme-3M): 42.2 µM (inactive); GI50 (XF498): 16 µM (inactive); GI50 (SN12C): 44.1 µM (inactive); GI50 (LOX IMVI): 17.1 µM (inactive); GI50 (786-0): 24.5 µM (inactive); GI50 (IGROV-1): 30.5 µM (inactive); GI50 (NCI-H23): 28.6 µM (inactive); GI50 (DMS-114): 16.3 µM (inactive); GI50 (HT-29): > 46.5 µM (inactive); GI50 (NCI-H226): 22.9 µM (inactive); GI50 (SK-MEL-2): 20.4 µM (inactive); GI50 (A498): 17.3 µM (inactive); GI50 (RXF 393): 28.3 µM (inactive); GI50 (SK-MEL-28): > 46.5 µM (inactive)
